Results published in US20250145631A1, “HETEROCYCLIC COMPOUND ACTING ON G12D MUTANT KRAS PROTEIN” (Astellas Pharma Inc., priority 2022, published 2025).
pIC50: −log10 of the molar value.

Experiments:
Assay type in all cases: cell-based
[1] = molecular target: T1, KRAS G12D (Homo sapiens, UniProt P01116, G12D); assay: KRAS degradation activity by Cell ELISA in AsPC-1 cells (Test Example 1); conditions: Cell ELISA; for Dmax: ASPC1, overnight treatment, read-out: Dmax (degradation rate at the concentration showing highest degradation); for DC50: overnight treatment, read-out: DC50 (50% degradation concentration of KRAS)
T1 construct: host or cells: AsPC-1 (human pancreatic cancer line)
Outline: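 AsPC-1 cells (2.0×10^4/well) treated overnight with compounds at 10 μM–0.3 nM (10 points), then fixed, permeabilised and stained for KRAS G12D (800 nm) and β-actin (700 nm) by in-cell ELISA. KRAS signal normalised to β-actin, DMSO set as 0% and actin-only staining as 100%; DC50 from Sigmoid-Emax regression up to Dmax.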

[2] = system: phosphorylation of ERK (Thr202/Tyr204); assay: ERK phosphorylation inhibitory effect by Cell ELISA in AsPC-1 cells (Test Example 2); conditions: Homo sapiens, ASPC1, overnight treatment, Cell ELISA, read-out: IC50 (ERK phosphorylation inhibition)
Outline: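 AsPC-1 cells (2.0×10^4/well, RPMI 1640 + 10% FBS) treated overnight with compounds (10 points, 10 μM to 0.3 nM final), then glyoxal-fixed and immunostained for phospho-ERK with IRDye 800CW secondary; 800-nm fluorescence read. IC50 by Sigmoid-Emax regression, normalized to DMSO (100%) and 1 μM trametinib (0%).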

[3] = system: human G12D mutant KRAS-positive pancreatic cancer line AsPC-1; assay: Non-anchorage-dependent cell growth inhibitory effect, spheroid 3D culture (Test Example 3); conditions: ASPC1, 144 h, AsPC-1 spheroid 3D culture, 6 days; for pIC50: CellTiter Glo 2.0, read-out: IC50 (non-anchorage-dependent cell growth inhibition)
Outline: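 AsPC-1 cells grown as spheroids in RPMI 1640 with 10% FBS at 37° C, 5% CO2, then exposed to compounds (10 μM to 0.3 nM final) for 6 days. Viability read by CellTiter Glo 2.0 luminescence. IC50 from Sigmoid-Emax regression with DMSO as 100% and cell-free medium as 0%.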

T1 sequence (P01116 1-188 isoform P01116-2 G12D): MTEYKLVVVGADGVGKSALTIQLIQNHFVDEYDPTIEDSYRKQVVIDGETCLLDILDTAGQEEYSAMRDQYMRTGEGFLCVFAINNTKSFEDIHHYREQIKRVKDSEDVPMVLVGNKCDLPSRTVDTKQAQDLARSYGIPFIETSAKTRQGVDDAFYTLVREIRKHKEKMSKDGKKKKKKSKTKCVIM

Row | SMILES | Dmax [1] [%] | DC50 [1] [µM] | pIC50 [2] | pIC50 [3] | inhibition at 10 µM ([3]; at 10 μM, read-out: cell growth inhibition at the highest concentration evaluated) [%]
1 | Cc1c(F)cc2[nH]ncc2c1-c1c(C2CC2)cc2c(N3C[C@@H]4C[C@H]3CN4)nc(OC3CCOCC3)nc2c1OCc1ccc(C(=O)N2CCN(Cc3ccc4c(N5CCC(=O)NC5=O)nn(C)c4n3)C[C@@H]2C)cc1 (atropisomer, axis not shown) [Example 24] | 78 | 0.297 | 6.64 | 6.65 | 
2 | Cc1c(N2CCC(=O)NC2=O)ccnc1OC1CCN(C(=O)c2ccc(COc3c(-c4c(C)c(F)cc5[nH]ncc45)c(C4CC4)cc4c(N5C[C@@H]6C[C@H]5CN6)nc(OC5CCOCC5)nc34)cc2)CC1 (atropisomer, axis not shown) [Example 21] | 52 | 4.96 | 5.64 | 6.07 | 
3 | Cc1c(F)cc2[nH]ncc2c1-c1c(C2CC2)cc2c(N3C[C@@H]4C[C@H]3CN4)nc(OC3CCOCC3)nc2c1OCc1ccc(C(=O)N2CCN(CCOc3cccc(N4CCC(=O)NC4=O)c3)CC2)cc1 (atropisomer, axis not shown) [Example 28] | 54 | 5.53 | 5.66 | 5.70 | 
4 | Cc1c(F)cc2[nH]ncc2c1-c1c(C2CC2)cc2c(N3C[C@@H]4C[C@H]3CN4)nc(OC3CCOCC3)nc2c1OCc1ccc(C(=O)N2CCN(Cc3ccc4c(N5CCC(=O)NC5=O)nn(C)c4c3)CC2)cc1 (atropisomer, axis not shown) [Example 13] | 66 | 0.408 | 6.22 | 5.91 | 
5 | Cc1c(F)cc2[nH]ncc2c1-c1c(C2CC2)cc2c(N3C[C@@H]4C[C@H]3CN4)nc(OC3CCOCC3)nc2c1OCc1ccc(C(=O)N2CCN(Cc3ccn4c(N5CCC(=O)NC5=O)cnc4c3)C[C@@H]2C)cc1 (atropisomer, axis not shown; (M)) [Example 34, 1-(7-{[(3S)-4-{4-[({(7M)-6-cyclopropyl-4-[(1S,4S)-2,5-diazabicyclo[2.2.1]heptan-2-yl]-7-(6-fluoro-5-methyl-1H-indazol-4-yl)-2-[(oxan-4-yl)oxy]quinazolin-8-yl}oxy)methyl]benzoyl}-3-methylpiperazin-1-yl]methyl}imidazo[1,2-a]pyridin-3-yl)-1,3-diazinane-2,4-dione] | 85 | 0.202 | 6.70 | 6.32 | 
6 | CC[C@H]1CN(Cc2ccc3c(N4CCC(=O)NC4=O)nn(C)c3c2)CCN1C(=O)c1ccc(COc2c(-c3c(C)c(F)cc4[nH]ncc34)c(C3CC3)cc3c(N4C[C@@H]5C[C@H]4CN5)nc(OC4CCOCC4)nc23)cc1 (atropisomer, axis not shown) [Example 25] | 70 | 0.856 | 6.18 | 6.34 | 
7 | Cc1nc(N2CCN(C(=O)c3ccc(COc4c(-c5c(C)c(F)cc6[nH]ncc56)c(C5CC5)cc5c(N6C[C@@H]7C[C@H]6CN7)nc(OC6CCOCC6)nc45)cc3)CC2)ccc1N1CCC(=O)NC1=O (atropisomer, axis not shown) [Example 14] | 51 | 2.18 | 5.82 | 5.95 | 
8 | CO[C@@H](C)COc1nc(O[C@H]2CCNC2)c2cc(C3CC3)c(-c3c(C)c(F)cc4[nH]ncc34)c(OCc3ccc(C(=O)N4CCN(Cc5ccc6c(c5)n(C)c(=O)n6C5CCC(=O)NC5=O)C[C@@H]4C)cc3)c2n1 (stereo partly drawn) [Example 43] | 90 | 0.009 | 7.89 | 7.48 | 
9 | Cc1c(F)cc2[nH]ncc2c1-c1c(C2CC2)cc2c(N3C[C@@H]4C[C@H]3CN4)nc(OC[C@H]3CCCO3)nc2c1OCc1ccc(C(=O)N2CCN(Cc3ccc4c(c3)n(C)c(=O)n4C3CCC(=O)NC3=O)C[C@@H]2C)cc1 (stereo partly drawn) [Example 37] | 87 | 0.03 | 7.39 | 7.19 | 
10 | Cc1nc(OC2CCN(C(=O)c3ccc(COc4c(-c5c(C)c(F)cc6[nH]ncc56)c(C5CC5)cc5c(N6C[C@@H]7C[C@H]6CN7)nc(OC6CCOCC6)nc45)cc3)CC2)ccc1N1CCC(=O)NC1=O (atropisomer, axis not shown) [Example 17] | 52 | 4.27 | 5.87 | 6.16 | 
11 | Cc1c(F)cc2[nH]ncc2c1-c1c(C2CC2)cc2c(N3C[C@@H]4C[C@H]3CN4)nc(OC3CCOCC3)nc2c1OCc1ccc(C(=O)N2CCN(Cc3ccc4c(c3)oc(=O)n4C3CCC(=O)NC3=O)CC2)cc1 (stereo partly drawn) [Example 3] | 83 | 0.053 | 7.03 | 6.92 | 
12 | Cc1c(F)cc2[nH]ncc2c1-c1c(C2CC2)cc2c(N3C[C@@H]4C[C@H]3CN4)nc(OC3CCOCC3)nc2c1OCc1ccc(C(=O)N2CCC(CN3CCN(c4cc5c(cc4F)C(=O)N(C4CCC(=O)NC4=O)C5=O)CC3)CC2)cc1 (stereo partly drawn) [Example 2] | 59 | 4.9 | 5.32 |  | 55
13 | CO[C@H](C)COc1cc(O[C@H]2CCNC2)c2cc(C3CC3)c(-c3c(C)c(F)cc4[nH]ncc34)c(OCc3ccc(C(=O)N4CCN(Cc5ccc6c(c5)n(C)c(=O)n6C5CCC(=O)NC5=O)C[C@@H]4C)cc3)c2n1 (stereo partly drawn) [Example 44] | 74 | 0.041 | 7.16 | 6.91 | 
14 | Cc1c(F)cc2[nH]ncc2c1-c1c(C2CC2)cc2c(N3C[C@@H]4C[C@H]3CN4)nc(OC3CCOCC3)nc2c1OCc1ccc(C(=O)N2CCN(Cc3ccc4c(N5CCC(=O)NC5=O)nn(C)c4c3)C[C@H]2C)cc1 (atropisomer, axis not shown) [Example 15] | 60 | 0.406 | 6.30 | 6.68 | 
15 | Cc1c(F)cc2[nH]ncc2c1-c1c(C2CC2)cc2c(O[C@H]3CCNC3)cc(OC[C@@H]3CCCO3)nc2c1OCc1ccc(C(=O)N2CCN(Cc3ccc4c(c3)n(C)c(=O)n4C3CCC(=O)NC3=O)C[C@@H]2C)cc1 (stereo partly drawn) [Example 31] | 71 | 0.115 | 6.80 | 6.83 | 
